The target of test [1] is NACHT, LRR and PYD domains-containing protein 3 (Mus musculus) (UniProt Q8R4B8). Briefly: Inhibition of NLRP3 inflammasome activation in LPS/MSU-treated C57BL/6 mouse bone marrow-derived macrophages assessed as reduction in activated caspase 1(P20) level in cell lysates preincubated for 3 hrs with LPS and for 30 mins with compound prior to MSU addition and measured after 30 mins by Western blot analysis. It is filed as subcellular. The note with it: BMDM, time 60.0 min. (Immunoblotting shows a protein as a band on a membrane.)
NACHT, LRR and PYD domains-containing protein 3 (Mus musculus), sequence (Q8R4B8 whole entry, the tested form may be a part): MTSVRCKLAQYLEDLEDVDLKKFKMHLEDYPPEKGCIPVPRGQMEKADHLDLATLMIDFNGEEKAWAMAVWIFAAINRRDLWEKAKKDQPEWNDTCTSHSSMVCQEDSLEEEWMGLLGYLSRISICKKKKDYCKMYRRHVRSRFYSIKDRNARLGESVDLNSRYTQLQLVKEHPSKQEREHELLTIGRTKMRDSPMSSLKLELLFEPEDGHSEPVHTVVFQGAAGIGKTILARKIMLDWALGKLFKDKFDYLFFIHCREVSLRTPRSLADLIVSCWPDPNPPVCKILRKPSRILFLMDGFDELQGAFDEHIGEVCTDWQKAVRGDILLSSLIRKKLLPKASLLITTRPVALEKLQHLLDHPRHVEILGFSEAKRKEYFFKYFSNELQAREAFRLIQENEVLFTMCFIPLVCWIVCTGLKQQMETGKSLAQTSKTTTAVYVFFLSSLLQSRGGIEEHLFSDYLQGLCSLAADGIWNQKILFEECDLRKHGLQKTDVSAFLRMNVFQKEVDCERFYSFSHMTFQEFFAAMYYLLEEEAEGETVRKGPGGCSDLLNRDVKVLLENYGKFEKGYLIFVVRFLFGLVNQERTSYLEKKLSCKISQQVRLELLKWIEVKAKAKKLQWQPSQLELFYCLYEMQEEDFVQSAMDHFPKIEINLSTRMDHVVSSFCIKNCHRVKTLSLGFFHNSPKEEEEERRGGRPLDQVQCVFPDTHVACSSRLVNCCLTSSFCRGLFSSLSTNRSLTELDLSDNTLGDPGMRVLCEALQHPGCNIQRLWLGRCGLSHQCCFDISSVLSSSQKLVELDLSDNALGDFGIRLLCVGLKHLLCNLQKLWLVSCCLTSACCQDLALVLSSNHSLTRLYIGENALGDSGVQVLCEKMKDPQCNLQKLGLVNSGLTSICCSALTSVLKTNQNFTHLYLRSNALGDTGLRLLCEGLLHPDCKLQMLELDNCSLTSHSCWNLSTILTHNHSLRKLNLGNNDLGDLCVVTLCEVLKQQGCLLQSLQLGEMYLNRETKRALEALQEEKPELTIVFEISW

A short description of test [2]: Inhibition of LPS/nigericin-induced reactive oxygen species production in C57BL/6 mouse bone marrow-derived macrophages assessed as ROS level at 1 uM by DCFH-DA staining based flow cytometry (reference value: 33.51%). It is filed as functional, BMDM. Also on record: scale not given: the % may be the effect or the level left. A general note: Flow cytometry measures light scatter and fluorescence of single cells or particles in a stream.

Test [3] addresses NACHT, LRR and PYD domains-containing protein 3 (Mus musculus) (UniProt Q8R4B8). Briefly: Inhibition of NLRP3 inflammasome activation in LPS-stimulated mouse J774.A1 cells assessed as reduction in pyroptosis at 10 uM pretreated for 4 hrs with LPS and for 30 mins with compound prior to ATP addition and measured after 30 mins by PI/Hoechst33342 staining based analysis. The note with it: time 60.0 min. The test is classed as cell-based.

Test [4] shares this target. Briefly: Inhibition of NLRP3 inflammasome activation in LPS/ATP-treated C57BL/6 mouse bone marrow-derived macrophages assessed as reduction in activated caspase 1(P20) level in cell lysates preincubated for 3 hrs with LPS and for 30 mins with compound prior to ATP addition and measured after 30 mins by Western blot analysis. The test is classed as subcellular. The note with it: BMDM, time 60.0 min.

Test [5] concerns Mus musculus. Description: Anti-colitis activity against DSS-induced colitis C57BL/6 mouse model assessed as reduction in body weight loss at 10 to 20 mg/kg, po administered once a day. It is filed as functional, organism-based. The note with it: dose 10-20 mg/kg.
Test [6] concerns the target NACHT, LRR and PYD domains-containing protein 3 (Mus musculus) (UniProt Q8R4B8). Briefly: Inhibition of NLRP3 inflammasome activation in LPS/MSU-treated C57BL/6 mouse bone marrow-derived macrophages assessed as reduction in activated caspase 1(P20) level in culture supernatants preincubated for 3 hrs with LPS and for 30 mins with compound prior to MSU addition and measured after 30 mins by Western blot analysis. It is filed as cell-based. The settings on record: BMDM, time 60.0 min.

In test [7] the test system is Mus musculus. Description: Anti-colitis activity against DSS-induced colitis C57BL/6 mouse model assessed as reduction in TNF-alpha level in colon at 10 to 20 mg/kg, po administered once a day and measured on day 8 by ELISA. It is filed as functional, organism-based. The settings on record: dose 10-20 mg/kg, time 8.0 day.
Test [8] can be described thus: Inhibition of LPS/nigericin-induced reactive oxygen species production in C57BL/6 mouse bone marrow-derived macrophages assessed as ROS level at 4 uM by DCFH-DA staining based flow cytometry (reference value: 33.51%). It is filed as functional, BMDM. Details: scale not given: the % may be the effect or the level left.

Calls of active or inactive are those of the source. No cut-off for these calls is given here.

A word on the inhibition: it is the percentage by which the read-out fell short of the control.

On to `COc1cc(/C=C/c2ccc(NC(=O)c3ccco3)cc2)c(/C=C/[N+](=O)[O-])c(OC)c1`, for which the inhibition result in test [1], in test [4] and in test [6] was “Active” throughout. Besides, the values for the Activity in test [2] and in test [8] were 30.5% and 29.01%, respectively. Moreover, the inhibition in test [3] is 70.8%. Also, the outcome with Mus musculus [5] and in the test with Mus musculus [7] was Active.

The record behind these values is ChEMBL document CHEMBL5154869, “Discovery of 4-((E)-3,5-dimethoxy-2-((E)-2-nitrovinyl)styryl)aniline derivatives as potent and orally active NLRP3 inflammasome inhibitors for colitis” (Eur J Med Chem, 2022).
